Results: patent US20240138406A1, “ANTIMICROBIAL PEPTIDE SCYAMPCIN44-63 AND APPLICATION THEREOF” (Xiamen University, priority 2021, published 2024)
No end group written: not given here.

Assays:
[1] = test system: Enterococcus faecalis QZ19138; conditions: QZ19138, 24 h
[2] = test system: Enterococcus faecium CGMCC 1.131; conditions: CGMCC 1.131, 24 h
[3] = test system: Shigella flexneri CGMCC 1.1868; conditions: 24 h
[4] = test system: Klebsiella pneumoniae QZ18106; conditions: QZ18106, 24 h
Escherichia coli QZ18109 = conditions: QZ18109, 24 h
[5] = test system: Fusarium graminearum CGMCC 3.4521; conditions: Filamentous fungi, incubated 24 hours
[6] = test system: Escherichia coli CGMCC 1.2389; conditions: CGMCC 1.2389, 24 h
[7] = test system: Human embryonic kidney 293T (HEK-293T) cells; assay type: cell-based
Protocol: (§1) IV. Cytotoxicity of the […]44-63 is measured and evaluated by using 3-(4,5-dimethylthiazol-2-yl)-5-(3-carboxymethoxyphenyl)-2-(4-sulfophenyl)-2H-tetrazolium (MTS) 1. Human embryonic kidney 293T (HEK-293T) cells and epithelioma papulosum […] (EPC) cells are selected to assess the cytotoxicity of the […]44-63. […] HEK-293T cells are incubated in a cell incubator with 5% CO2 at 37° C., and EPC cells are incubated in a cell incubator with 5% CO2 at 28° C. (2) 50 μL of medium is carefully sucked out, fresh media with or without different concentrations of the […]44-63 are respectively added to a corresponding well, put in a corresponding cell condition, and incubated for another 24 hours while leaving to stand. (3) 20 μL of an MTS-Phenazinemethosulfate (PMS) mixed solution is added and incubated for 4 hours, absorbance of each well is measured at OD492 nm in a microplate reader, and cell viabilities are calculated.

[8] = test system: epithelioma papulosum cyprini (EPC) cells; assay type: cell-based
Protocol: as §1

[9] = test system: Acinetobacter baumannii CGMCC 1.6769; conditions: CGMCC 1.6769, 24 h
[10] = test system: Fusarium solani CGMCC 3.584; conditions: 24 h
[11] = test system: Listeria monocytogenes CGMCC 1.10753; conditions: CGMCC 1.10753, 24 h
[12] = test system: Staphylococcus aureus CGMCC 1.2465; conditions: CGMCC 1.2465, 24 h
[13] = test system: Pseudomonas aeruginosa QZ18071; conditions: QZ18071, 24 h
[14] = test system: Candida albicans CGMCC 2.2411; conditions: CGMCC 2.2411, 24 h
[15] = test system: Enterococcus faecium QZ18080; conditions: QZ18080, 24 h
[16] = test system: Bacillus cereus CGMCC 1.3760; conditions: CGMCC 1.3760, 24 h
[17] = test system: Pseudomonas aeruginosa CGMCC 1.1785; conditions: CGMCC 1.1785, 24 h
[18] = test system: Staphylococcus aureus QZ19131; conditions: QZ19131, 24 h
[19] = test system: Cryptococcus neoformans CGMCC 2.1563; conditions: CGMCC 2.1563, 24 h
[20] = test system: Acinetobacter baumannii QZ20141; conditions: QZ20141, 24 h

GKKKKRNMMKTKEPGIIFFF-NH2 [Scyampcin44-63]
6 to 12 µM: MBC [13] | MBC [17]
0 to 3 µM: MBC [2] | MBC [3] | MBC (Escherichia coli QZ18109) | MBC [6] | MBC [9] | MBC [11] | MBC [15] | MBC [19]
no cytotoxicity: Cytotoxicity (cell viability, MTS) [7] | Cytotoxicity (cell viability, MTS) [8]
3 to 6 µM: MBC [1] | MBC [4] | MBC [5] | MBC [10] | MBC [12] | MBC [14] | MBC [16] | MBC [18] | MBC [20]
